Laboratory results as given in patent EP4631941A1 (Jiangsu Tasly Diyi Pharmaceutical Co., Ltd., priority 2022, dated 2024).
Structures can show the parent of a compound that is named as a salt. One block for each compound: values may come before it.

Key:
[1] = test system: human prostate cancer cell DU145 xenografts in nude mice; experiment: In vivo efficacy assay against prostate cancer (DU145 xenograft); set-up: species or system BALB/c nude mice; conditions: Example 20 study, 21 days; for T/C(%) / tumor inhibition rate: DU145 xenograft; for body weight of nude mice during dosing: each group, once a day
[2] = test system: prostate cancer 22Rv1 cells; experiment: Cell proliferation inhibition activity assay (CCK-8 method), 22Rv1; assay type: cell-based
ICR mice = experiment: Acute toxicity test, single gavage, 14 days observation; assay type: in vivo
[3] = test system: prostate cancer DU145 cells; experiment: Cell proliferation inhibition activity assay (CCK-8 method), DU145; assay type: cell-based
DYRK2 kinase = target: T1, DYRK2 kinase (Homo sapiens, UniProt Q92630); experiment: DYRK2 kinase activity analysis assay (33P-ATP, DYRKtide substrate, P81 filter paper); assay type: biochemical; conditions: 2 hours at room temperature, read-out: IC50
T1 sequence (Q92630 1-601): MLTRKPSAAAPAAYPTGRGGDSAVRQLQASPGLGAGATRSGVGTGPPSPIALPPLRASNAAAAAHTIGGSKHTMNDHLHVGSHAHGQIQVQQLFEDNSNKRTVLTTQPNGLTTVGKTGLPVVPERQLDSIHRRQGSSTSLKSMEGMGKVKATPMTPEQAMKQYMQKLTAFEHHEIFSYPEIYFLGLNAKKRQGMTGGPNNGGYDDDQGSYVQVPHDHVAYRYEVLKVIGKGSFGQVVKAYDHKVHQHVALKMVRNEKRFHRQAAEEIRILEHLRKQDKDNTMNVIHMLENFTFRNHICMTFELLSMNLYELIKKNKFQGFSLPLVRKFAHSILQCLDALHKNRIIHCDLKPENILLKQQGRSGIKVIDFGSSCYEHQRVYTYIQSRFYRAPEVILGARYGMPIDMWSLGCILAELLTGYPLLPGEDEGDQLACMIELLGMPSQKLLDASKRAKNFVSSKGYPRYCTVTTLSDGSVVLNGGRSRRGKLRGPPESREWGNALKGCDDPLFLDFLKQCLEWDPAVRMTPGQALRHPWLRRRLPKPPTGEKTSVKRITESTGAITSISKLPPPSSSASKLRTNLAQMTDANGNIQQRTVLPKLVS

Structure (SMILES): CNC(=O)c1ccc(N2C(=S)N(c3ccc(C#N)c(C(F)(F)F)c3)C(=O)C2(C)C)cc1F [enzalutamide, reference compound]
- T/C(%) ([1]; 100 mg/kg once a day): 42.0%
- tumor inhibition rate ([1]; 100 mg/kg once a day): 57.8%
- body weight of nude mice during dosing [1]: no significant decrease in body weight

Structure (SMILES): Cl.O=C(c1ccc(Nc2ncc(F)c(-c3ccc4scnc4c3)n2)nc1)N1CCNCC1 [Example 20, (6-((4-(benzothiazole-5-yl)-5-fluoropyrimidine-2-yl)amino)pyridine-3-yl)(piperazine-1-yl)ketone hydrochloride]
- IC50 ([2]; Homo sapiens, 22Rv1 cells, 72 hours, CCK8): 2.55 ± 0.046 µM
- inhibition of proliferation of prostate cancer 22Rv1 cell ([2]; result in words): significantly inhibit
- death of animals after day 14 of dosing (ICR mice; gavage once, 1000, 2500, 5000 and 10000 mg/kg, day 14): no animals died
- weight of main organs (heart, liver, spleen, lung, kidney) versus control group (ICR mice; gavage once, 1000, 2500, 5000 and 10000 mg/kg, dissection after 14 days): no difference in the weight of main organs
- abnormality after dosing (ICR mice; gavage once, 1000, 2500, 5000 and 10000 mg/kg, within 12 hours after dosing): no abnormality was observed
- death of animals within 24 hours of dosing (ICR mice; gavage once, 1000, 2500, 5000 and 10000 mg/kg, within 24 hours): No animals died
- toxic or side effects (overall conclusion) (ICR mice; gavage once, up to 10000 mg/kg): no obvious toxic or side effects
- T/C(%) ([1]; 100 mg/kg once a day): 50.9%
- tumor inhibition rate ([1]; 100 mg/kg once a day): 48.7%
- body weight of nude mice during dosing [1]: no significant decrease in body weight
- T/C(%) ([1]; high dose 200 mg/kg once a day): 34.4%
- tumor inhibition rate ([1]; high dose 200 mg/kg once a day): 65.3%
- IC50 ([3]; Homo sapiens, DU-145, DU145 cells, 72 hours, CCK8): 3.25 ± 0.06 µM
- inhibition of proliferation of prostate cancer DU145 cell ([3]; result in words): significantly inhibit
- IC50 (DYRK2 kinase): 0.6 nM

Structure (SMILES): O=C(c1ccc(Nc2ncc(F)c(-c3ccc4scnc4c3)n2)cn1)N1CCNCC1 [Example 26, (5-((4-(benzothiazole-5-yl)-5-fluoropyrimidine-2-yl)amino)pyridine-2-yl)(piperazine-1-yl)ketone hydrochloride]
- IC50 (DYRK2 kinase): 4 nM

Next, values leading:

- IC50 (DYRK2 kinase): 16 nM
Structure (SMILES): CC(C)(C)OC(=O)N1CCN(c2ccc(Nc3ncc(F)c(-c4ccc5scnc5c4)n3)cn2)CC1 [Example 25, tert-butyl 4-(5-((4-(benzothiazole-5-yl)-5-fluoropyrimidine-2-yl)amino)pyridine-2-yl)piperazine-1-carboxylate]

- IC50 (DYRK2 kinase): 18 nM
Structure (SMILES): CN(C)c1nc2cc(-c3nc(Nc4ccc(C(=O)N5CCNCC5)cn4)ncc3F)ccc2s1 [Example 27, (6-((4-(2-(dimethylamino)benzothiazole-5-yl)-5-fluoropyrimidine-2-yl)amino)pyridine-3-yl)(piperazine-1-yl)ketone hydrochloride]
